From US9284325B2, “Spectinamides as anti-tuberculosis agents” (UNIVERSITY OF TENNESSEE RESEARCH FOUNDATION, priority 2009, dated 2016) come the findings set out here.

Structures can show the parent of a compound that is named as a salt.

In this experiment the test system is M. tuberculosis drug-resistant strains and mutants. The class given is cell-based, Mycobacterium tuberculosis.

With `CN[C@@H]1[C@H](O)[C@H](NC)C2O[C@]3(O)C(OC2[C@H]1O)O[C@H](C)C[C@H]3NC(=O)Cc1ccccn1` (stereo partly drawn) [Compound 1329, 3′-Dihydro-3′-deoxy-4(R)-(pyridin-2yl)acetylamino spectinomycin Dihydrochloride], the “cross resistance with first-line TB drugs isoniazid, rifampicin and ethambutol” value is reported as “no cross resistance”; the “susceptibility of spontaneous streptomycin mutants incl. ATCC 35820” value was “highly susceptible”. Also, the “Activity (MIC) of 1329 compared to streptomycin” value (Dihydrochloride) was above 200.
